Measurements published in patent publication US20260325515A1, “TREATMENT OF CANINE CANCERS” (OneHealthCompany, Inc., priority 2023, published 2026).

Legend:
Format in all cases: in vivo, canine (dogs)
Squamous cell carcinoma = experiment: Survival of dogs with squamous cell carcinoma treated with Toceranib (Cox proportional-hazards model)
Text: (§1) A Cox proportional-hazards model was used to fit survival time. The model estimates the risk of death at a given time, h(t|X)=h(t)*exp(X1β1+ . . . +Xpβp), where h represents the risk of death at time t, and X represents p covariates. Additionally, the ratio of the hazard rates in the treatment group versus the control group is represented as the hazard ratio.
(§2) A one-hot encoded feature for each targeted therapy (treatment) received by the dog was created. For example, if a dog receives multiple treatments, the encoding for each treatment would be a “1,” otherwise, a treatment is encoded as “0”. Similarly, gene mutations were one-hot encoded and treated as independent variables during the analyses. Tumor types were grouped into broad categories to preserve sample size and include them as one-hot encoded features.
(§3) Each dog's survival time and status were determined based on their last known update, which was reported by the veterinarian's office. A dog is only considered deceased if there is a reported date of death, and is only considered to have survived up until the last known update. Two survival intervals were computed: survival from time of diagnosis and survival from time of treatment. When reporting hazard ratios regardless of intervention, survival time is defined as survival from time of diagnosis, which is the time from diagnosis to last known update if the dog is still active, and the time from diagnosis to death if the dog is deceased. When reporting hazard ratios for specific treatments, survival time is defined as survival from treatment. The first date of any targeted therapy being ordered is used as the start of the treatment date.
(§4) Demographic features, including weight in kilograms, sex, and reproductive status (neutered or spayed vs intact), were extracted and used as covariates in the Cox model. In addition, to control for each dog's baseline survival rates, the dog's age at diagnosis, as well as the time from diagnosis to treatment are included, which is computed by […].

carcinoma = experiment: Survival of dogs with carcinoma with Toceranib; conditions: 65 without Toceranib
Text: Dogs receiving Toceranib achieved a median survival of 419 days compared to 250 days in untreated cases, with a hazard ratio of 0.292 and a statistically significant p-value of 0.003 (Table 3).

Melanoma = experiment: Survival of dogs with melanoma treated with Palbociclib (Cox proportional-hazards model)
Text: as §1, §2, §3, §4

[1] = system: RB1-mutated canine tumors; experiment: Real-world clinico-genomic analysis, RB1-mutated canine tumors; conditions: Rapamycin, P=0.024
Procedure: (§5) Briefly, real-world clinico-genomic data from 3000 dogs were analyzed.

[2] = system: TP53-mutated canine tumors; experiment: Real-world clinico-genomic analysis, TP53-mutated canine tumors
Procedure: as §5

[3] = system: soft tissue sarcomas with TP53 mutations; experiment: Real-world clinico-genomic analysis, soft tissue sarcomas with TP53 mutations
Procedure: as §5

BRCA1-mutated cases = experiment: Real-world clinico-genomic analysis, BRCA1-mutated cases; conditions: Olaparib, P=0.004
Procedure: as §5

[4] = system: TP53 mutant osteosarcomas; experiment: Real-world clinico-genomic analysis, TP53 mutant osteosarcomas; conditions: Olaparib, P<0.001
Procedure: as §5

Anal Sac carcinoma = experiment: Survival of dogs with anal sac carcinoma with Olaparib; conditions: 85 without Olaparib
Text: A significant survival benefit in dogs with anal sac carcinoma treated with Olaparib was observed. Dogs receiving Olaparib achieved a median survival of 422 days compared to 273 days in untreated cases, with a hazard ratio of 0.319 and a statistically significant p-value of 0.023 (Table 2).

Osteosarcoma = experiment: Survival of dogs with osteosarcoma treated with Olaparib (Cox proportional-hazards model)
Text: as §1, §2, §3, §4

[5] = system: oral malignant melanoma carrying BRCA1/2 mutations; experiment: Survival of dogs with oral malignant melanoma carrying BRCA1/2 mutations treated with Olaparib; conditions: oral malignant melanoma with BRCA1/2 mutations, vs 235 days for other biomarker profiles and alternative drugs, P=0.0120

## Cc1[nH]c(/C=C2\C(=O)Nc3ccc(F)cc32)c(C)c1C(=O)NCCN1CCCC1 [Toceranib]
Squamous cell carcinoma; dogs, 13 patients with treatment, 183 d (32) without treatment
  Median survival (#patients) with treatment: 577 d (13)
Squamous cell carcinoma; dogs, treatment vs control, P = 0.005
  Hazard Ratio (Signal Efficacy): 0.072
Squamous cell carcinoma; vs. 183 days without treatment
  median survival: 577 days
carcinoma; 26 dogs with, without Toceranib 250 days
  Median Survival With Toceranib: 419 days
carcinoma; 95% CI printed (1.31-0.65), p-value 0.003, 26 dogs with
  Hazard Ratio: 0.292

## CC(=O)c1c(C)c2cnc(Nc3ccc(N4CCNCC4)cn3)nc2n(C2CCCC2)c1=O [Palbociclib]
Melanoma; dogs, 13 patients with treatment, 159 d (114) without treatment
  Median survival (#patients) with treatment: 433 d (13)
Melanoma; dogs, treatment vs control, P = 0.043
  Hazard Ratio (Signal Efficacy): 0.273
Melanoma; vs. 159 days without treatment
  median survival: 433 days

## CO[C@H]1C[C@@H]2CC[C@@H](C)[C@@](O)(O2)C(=O)C(=O)N2CCCC[C@H]2C(=O)O[C@H]([C@H](C)C[C@@H]2CC[C@@H](O)[C@H](OC)C2)CC(=O)[C@H](C)/C=C(\C)[C@@H](O)[C@@H](OC)C(=O)[C@H](C)C[C@H](C)/C=C/C=C/C=C/1C [Rapamycin]
[1]
  OS HR: 0.32
[2]; TP53-mutated canine tumors, Rapamycin, P=0.028
  OS HR: 0.73
[3]; Rapamycin, P=0.012
  OS HR: 0.11

## O=C(c1cc(Cc2n[nH]c(=O)c3ccccc23)ccc1F)N1CCN(C(=O)C2CC2)CC1 [Olaparib]
BRCA1-mutated cases
  OS HR: 0.39
[2]; TP53-mutated cases, Olaparib, P<0.001
  OS HR: 0.34
[4]
  OS HR: 0.11
Anal Sac carcinoma; 13 dogs with, without Olaparib 372 days (Table 2) / 273 days
  Median Survival With Olaparib: 422 days
Anal Sac carcinoma; 95% CI (0.119-0.855), p-value 0.023, 13 dogs with
  Hazard Ratio: 0.319
Osteosarcoma; dogs, 16 patients with treatment, 154 d (158) without treatment
  Median survival (#patients) with treatment: Inf (16)
Osteosarcoma; dogs, treatment vs control, P = 0.021
  Hazard Ratio (Signal Efficacy): 0.181
Osteosarcoma; vs. 154 days without treatment
  median survival: no death observed
[3]; Olaparib, P=0.011
  OS HR: 0.07
[5]
  median survival: 448 days
